What was measured:
Format in all cases: in vivo
[1] = tested on: Housefly [Musca domestica]; experiment: Housefly insecticidal test; details: μg per 25 female flies; mortality after 48 hours
In short: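 Acetone solutions (with 0.01% peanut oil) dried onto dish bottoms, then 25 female flies, 1-2 days old, caged over the residue with sugar water. Mortality scored at 48 hours; LC50 from dosage-mortality curves, in μg per 25 female flies, top level 100 μg.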

[2] = tested on: Tobacco Budworm [Heliothis virescens (Fabricius)] eggs; experiment: Tobacco budworm egg test; details: 2-day old eggs, percent in solution
In short: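 2-day eggs on paper towel, acetone dip, 0.1% and below; petri dish with larval diet, 78° F. Mortality read after control hatch and larval feeding. LC50 = % compound in solution, from dose-mortality curve.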

[3] = tested on: Cabbage Looper [Trichoplusia ni (Hubner)]; experiment: Cabbage looper insecticidal test; details: second-instar larvae, percent in solution; 3-5 days
In short: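 LC50 values, given as percent test compound in solution, were calculated from dosage-mortality curves. Squash cotyledons were immersed 2-3 s in acetone-water (50-50) dilutions starting at 0.1%, dried on a screen, then infested with five second-instar larvae. Mortality was read 3-5 days on.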

[4] = tested on: Aster Leafhopper [Macrosteles fascifrens (Stal)]; experiment: Aster leafhopper insecticidal test; details: adults/nymphs, percent in solution; 48 hours
In short: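 Three ~10 cm oat seedlings per cup were dipped 2-3 seconds in 50-50 acetone-water compound solutions, dried, and caged with ten adult/nymph leafhoppers. Mortality was counted after 48 hours at concentrations from 0.05% downward. LC50, as percent compound in solution, came from dosage-mortality curves.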

[5] = tested on: Maize weevil [Sitophilus Zeamais (Motschulsky)]; experiment: Maize weevil insecticidal test; details: adult weevils, percent in solution; 48 hours
In short: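 LC50, in percent of compound in solution, was derived from dosage-mortality curves after 48 h at about 25 °C. Ten adult weevils per container fed on four corn seeds briefly immersed in acetone:water (50:50) solutions of up to 0.01% and dried.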

[6] = tested on: Rice water weevil [Lissorhoptrus oryzophilus (Kuschel)]; experiment: Rice water weevil insecticidal test; details: topical, μg per weevil; 48 hours
Procedure: The compounds in Tables 1 and 2 above were tested for insecticidal activity using the following testing procedures. LC50 values, based on the results of these tests and calculated according to dosage-mortality curves, are expressed in Table 3.
Rice water weevil [Lissorhoptrus oryzophilus (Kuschel)]:
Test compounds were diluted in acetone. Droplets (1 μl) of test solutions were applied to the ventral abdomens of ten female adult weevils. The treated weevils were placed in containers with wet cotton balls and rice foliage. The containers were covered and kept at a temperature of about 25° C. Mortality was recorded after 48 hours. Test concentrations ranged from […] or 2.5 μg per weevil down to that at which 50% mortality occurred. The LC50 values are expressed below in Table 3 under the heading "RWW" in terms of μg of test compound per weevil.

SMILES	LC50, HF [1] [µg]	LC50, TBW, E (TBW-E) [2] [%]	LC50, CL [3] [%]	LC50, LH [4] [%]	LC50, MW [5] [%]	LC50, RWW [6] [µg]
CC(C)C(=Nc1ccc(F)c(Cl)c1)OCc1cccc(Oc2cccc(F)c2)c1 [Compound 125]	12	0.025	0.0007	> 0.05	> 0.01	> 2.5
CC(C)C(=Nc1ccc(C(F)(F)F)cc1)OCc1cccc(Oc2ccccc2)c1 [Compound 68]	37	0.009	0.006	0.0001	> 0.01	0.15
CC(C)C(=Nc1ccc(F)c(Cl)c1)OCc1cccc(Oc2ccc(F)cc2F)c1 [Compound 191]	29	0.04	0.00023	> 0.05	0.004	> 2.5
CC(C)C(=Nc1ccc(Cl)c(Cl)c1)OCc1ccc(F)c(Oc2ccccc2)c1 [Compound 376]	17	0.02	0.00037		0.0061	0.1
CC(C)C(=Nc1ccc(Br)c(Cl)c1)OCc1ccc(F)c(Oc2ccc(F)cc2)c1 [Compound 382]	< 100	0.027	0.00029		> 0.01	> 2.5
CC(C)C(=Nc1ccc(Br)cc1)OCc1ccc(F)c(Oc2ccc(Cl)cc2)c1 [Compound 378]	< 100	0.02	0.00034		> 0.01	> 2.5
CC(C)C(=Nc1cccc(Br)c1)OCc1ccc(F)c(Oc2ccccc2)c1 [Compound 387]	< 100	0.05	0.0012		> 0.01	> 2.5
CC(C)C(=Nc1ccc(C(F)(F)F)c(Br)c1)OCc1ccc(F)c(Oc2ccc(Cl)cc2)c1 [Compound 433]	< 100	0.02	0.00017		0.005	0.078
CC(C)C(=Nc1ccc(Br)c(Cl)c1)OCc1cccc(Oc2ccc(Cl)cc2)c1 [Compound 380]	> 100	> 0.1	> 0.1		> 0.01	> 2.5
CC(C)C(=Nc1ccc(Br)c(Cl)c1)OCc1ccc(F)c(Oc2ccc(Cl)cc2)c1 [Compound 381]	< 100	0.018	0.00092		> 0.01	> 2.5
CC(C)C(=Nc1ccc(F)c(Cl)c1)OCc1cccc(Oc2ccc(F)cc2)c1F [Compound 262]	26	> 0.1	0.0004		0.005	> 2.5
